This is an account of results in US20260083704A1, “LXR MODULATORS WITH BICYCLIC CORE MOIETY FOR TREATING DYSLIPIDEMIAS” (OrsoBio, Inc., priority 2022, published 2026).

Data set [1] has as its target T1, LXRβ (Homo sapiens, UniProt P55055).
T1 sequence (P55055 1-460): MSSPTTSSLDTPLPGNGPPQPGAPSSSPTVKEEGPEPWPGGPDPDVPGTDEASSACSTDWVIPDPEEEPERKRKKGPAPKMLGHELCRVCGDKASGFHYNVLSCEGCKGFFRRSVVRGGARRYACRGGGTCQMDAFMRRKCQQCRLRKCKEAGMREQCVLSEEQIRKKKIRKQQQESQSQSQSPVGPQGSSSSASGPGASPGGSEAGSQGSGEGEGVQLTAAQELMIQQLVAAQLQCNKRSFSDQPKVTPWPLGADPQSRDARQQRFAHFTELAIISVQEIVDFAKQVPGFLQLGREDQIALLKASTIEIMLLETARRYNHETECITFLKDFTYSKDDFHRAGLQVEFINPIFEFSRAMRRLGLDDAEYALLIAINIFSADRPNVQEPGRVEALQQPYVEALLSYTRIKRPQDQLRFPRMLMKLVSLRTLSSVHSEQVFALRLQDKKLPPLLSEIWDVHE
Kind of data set: Biochemical binding assay LXRβ. The following applies: mean ± SD. The protocol:
(§1) The potencies of Compound 21/3 and its analog, Compound pre-6/3, against LXRα and LXRβ were evaluated in biochemical binding assays, cellular mammalian two-hybrid (M2H) interaction assays evaluating nuclear receptor co-repressor (NCOR) recruitment, and cellular reporter assays evaluating transcriptional activity (Table 5).

For data set [2], the target named is T2, LXRα (Homo sapiens, UniProt Q13133).
T2 construct: full length (FL) proteins of LXRα (amino acids 1-447); NP005684
Kind of data set: LXR Gal4 reporter transient transfection assay (mammalian two-hybrid, HEK293), LXRα. The format is cell-based. The following applies: HEK293, NCOR recruitment, mean ± SD; read-out: HEK293 LXRα/NCOR recruitment (M2H) EC50. Here is the method: (§2) LXRα and LXRβ activity status was determined via detection of interaction with coactivator and corepressor proteins in mammalian two-hybrid experiments (M2H). For this, via transient transfection the full length (FL) proteins of LXRα (amino acids 1-447; NP005684; SEQ ID NO:1) or LXRβ-(amino acids 1-461; NP009052; SEQ ID NO:2) or the ligand-binding domains (LBD) of LXRα (amino acids 155-447 SEQ ID NO:3) or LXRβ (amino acids 156-461; SEQ ID NO:4) were expressed from pCMV-AD (Stratagene) as fusions to the transcriptional activation domain of NFkB. As cofactors, domains of either the steroid receptor coactivator 1 (SRC1; amino acids 552-887; SEQ ID NO:5) or of the corepressor NCoR (amino acids 1906-2312; NP006302; SEQ ID NO:6) were expressed as fusions to the DNA binding domain of the yeast transcription factor GAL4 (from pCMV-BD; Stratagene). Interaction was monitored via activation of a coexpressed Firefly Luciferase Reporter gene under control of a promoter containing repetitive GAL4 response elements (vector pFRLuc; Stratagene). Transfection efficiency was controlled via cotransfection of constitutively active pRL-CMV Renilla reniformis luciferase reporter (Promega). HEK293 cells were grown in minimum essential medium (MEM) with 2 mM L-glutamine and Earle's balanced salt solution supplemented with 8.3% fetal bovine serum, 0.1 mM non-essential amino acids, 1 mM sodium pyruvate, at 37° C. in 5% CO2. 3.5×10^4 cells/well were plated in 96-well cell culture plates in growth medium supplemented with 8.3% fetal bovine serum for 16-20 h to ˜90% confluency. For transfection, medium was taken off and LXR and cofactor expressing plasmids as well as the reporter plasmids are added in 30 μL OPTIMEM/well including polyethylene-imine (PEI) as vehicle. Typical amounts of plasmids transfected/well: pCMV-AD-LXR (5 ng), pCMV-BD-cofactor (5 ng), pFR-Luc (100 ng), pRL-CMV (0.5 ng). Compound stocks were prepared in DMSO, prediluted in MEM to a total volume of 120 μL, and added 4 h after addition of the transfection mixture (final vehicle concentration not exceeding 0.2%). Cells were incubated for additional 16 h, lysed for 10 min in 1×Passive Lysis Buffer (Promega) and Firefly and Renilla luciferase activities were measured sequentially in the same cell extract using buffers containing D-luciferine and coelenterazine, respectively. Measurements of luminescence were done in a BMG-luminometer.
as §1

Data set [3] has as its system SREBP1c reporter in HepG2. As to the kind of experiment: HepG2 SREBP1c reporter assay. The following applies: Homo sapiens; HepG2, mean ± SD. The class given is cell-based. Here is the method:
as §1

Data set [4] deals with T3, LXRα (Homo sapiens, UniProt Q13133).
T3 sequence (Q13133 1-447): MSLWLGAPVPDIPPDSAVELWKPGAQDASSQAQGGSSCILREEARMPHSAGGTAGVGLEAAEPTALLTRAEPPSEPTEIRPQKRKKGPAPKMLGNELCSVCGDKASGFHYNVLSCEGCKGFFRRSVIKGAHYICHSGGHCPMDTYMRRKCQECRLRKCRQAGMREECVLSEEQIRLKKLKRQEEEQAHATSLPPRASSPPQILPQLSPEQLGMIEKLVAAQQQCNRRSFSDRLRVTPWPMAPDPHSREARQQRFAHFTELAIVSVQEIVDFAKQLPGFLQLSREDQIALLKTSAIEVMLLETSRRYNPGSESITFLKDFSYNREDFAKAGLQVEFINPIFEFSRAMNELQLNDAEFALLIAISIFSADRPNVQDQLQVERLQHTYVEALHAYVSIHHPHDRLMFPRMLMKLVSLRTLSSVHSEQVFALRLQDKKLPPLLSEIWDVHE
As to the kind of experiment: Biochemical binding assay LXRα. The following applies: mean ± SD; read-out: LXα binding EC50. The protocol: as §1

Data set [5] has as its target LXRβ (Homo sapiens, UniProt P55055). As to the kind of experiment: LXR Gal4 reporter transient transfection assay (mammalian two-hybrid, HEK293), LXRβ. The following applies: HEK293, NCOR recruitment, mean ± SD; read-out: HEK293 LXRβ/NCOR recruitment (M2H) EC50. The format is cell-based. Summed up:
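HEK293 cells transiently co-transfected with full-length or LBD LXRα/LXRβ fused to NFkB activation domain, GAL4-DBD-fused SRC1 or NCoR cofactor domain, GAL4-responsive firefly luciferase reporter and Renilla control. Compound added 4 h post-transfection (≤0.2% DMSO), incubated 16 h; firefly and Renilla luminescence read sequentially.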
Target sequence in this assay (O75376 1906-2312 partner, one chain of several): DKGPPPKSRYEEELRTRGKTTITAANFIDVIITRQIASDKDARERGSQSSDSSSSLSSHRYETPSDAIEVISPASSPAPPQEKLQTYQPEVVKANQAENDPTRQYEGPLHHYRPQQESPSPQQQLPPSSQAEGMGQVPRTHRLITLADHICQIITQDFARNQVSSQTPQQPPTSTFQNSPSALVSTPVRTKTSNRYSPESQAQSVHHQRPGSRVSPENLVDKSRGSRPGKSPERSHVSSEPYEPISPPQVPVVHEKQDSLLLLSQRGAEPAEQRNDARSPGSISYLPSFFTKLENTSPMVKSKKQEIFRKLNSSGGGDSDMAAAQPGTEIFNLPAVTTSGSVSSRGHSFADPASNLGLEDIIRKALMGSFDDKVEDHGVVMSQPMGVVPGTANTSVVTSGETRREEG

For data set [6], the system named is ABCA1 reporter in HT-29. Kind of data set: HT-29 ABCA1 reporter assay. The class given is cell-based. The following applies: Homo sapiens; HT-29, mean ± SD. Here is the method:
as §1

Data set [7] can be described thus: Pharmacokinetics in mice after single oral dosing (blood/plasma and liver exposure). The following applies: 20 mg/kg single oral dose. The class given is in vivo.
In data set [8] the target is T3, LXRα. Kind of data set: LXR Gal4 reporter transient transfection assay (mammalian two-hybrid, HEK293), LXRα. The class given is cell-based. Also on record: expressed in transfected cells; host or cells: HEK293. The following applies: full length (FL) LXRα, HEK293; read-out: FL-M2H Gal4α. The protocol:
as §2, §1

Some results are limits rather than exact numbers.

As for `N#Cc1cccc(C#N)c1-c1c(-c2cccc(-c3ccc(C(=O)O)cc3Cl)c2)n(S(=O)(=O)c2ccc(C(F)F)cc2)c2ccc(F)cc12` [pre-6/3], the EC50 stood at 17 ± 7 nM in data set [1], 0.2 ± 0.1 nM in data set [2], 14 ± 5 nM in data set [4] and 0.4 ± 0.2 nM in data set [5]. For the same compound, the IC50 in data set [3] turned out to be 0.2 ± 0.1 nM; in data set [6] it was 0.7 ± 0.1 nM.
As to `Cc1ccc(S(=O)(=O)n2c(-c3cccc(-c4ccc(C(=O)O)cc4Cl)c3)c(-c3ccsc3C#N)c3cc(F)ccc32)cc1` [3/48], the liver exposure entry in data set [7] (time point 12 h) is “A (<300 nM)”. For the same compound, the “blood/plasma exposure (below LLOQ)” value in data set [7] (time point 12 h, number is the LLOQ) is “(1.2 ng/mL)”.
Regarding `N#Cc1cccc(C#N)c1-c1c(-c2cccc([C@H]3CC[C@H](C(=O)O)CC3)c2)n(S(=O)(=O)c2ccc(C(F)F)cc2)c2ccc(F)cc12` [11/62], the EC50 in data set [8] is < 100 nM.
Regarding `N#Cc1cccc(C#N)c1-c1c(-c2cccc(-c3ccc(C(=O)NCC(=O)O)cc3Cl)c2)n(S(=O)(=O)c2ccc(C(F)F)cc2)c2ccc(F)cc12` [Compound 21/3], the EC50 in data set [1] was 15 ± 3 nM; in data set [2], 8 ± 7 nM; in data set [4], 7 ± 16 nM; in data set [5], 11 ± 19 nM. Also, the IC50 in data set [3] is 7 ± 5 nM; in data set [6], 15 ± 4 nM.
As for `N#Cc1sccc1-c1c(-c2cccc(-c3ccc(C(=O)O)cc3Cl)c2)n(S(=O)(=O)c2ccc(C(F)F)cc2)c2ccc(F)cc12` [11/17], the EC50 in data set [8] is < 100 nM.
The same measure, in the same setting: the figure for `CS(=O)(=O)NC(=O)c1ccc(-c2cccc(-c3c(-c4c(C#N)cccc4C#N)c4cc(F)ccc4n3S(=O)(=O)c3ccc(C(F)F)cc3)c2)c(Cl)c1` [32/5] is < 100 nM.
Regarding `Cc1ccc(S(=O)(=O)n2c(-c3cccc(-c4ccc(C(=O)O)cc4)c3)c(-c3ccsc3C#N)c3cc(F)ccc32)cc1C` [23/2], in data set [7] (time point 4 h), the blood/plasma exposure result is “B (300 nM to ≤1 μM)”, the liver exposure result was “D (>3 μM)” and the liver/blood ratio result is on record as “C (10 to ≤30)”.
`Cc1ccc(S(=O)(=O)n2c(-c3cccc(-c4ccc(C(=O)O)cc4)c3)c(-c3ccsc3C#N)c3cc(F)ccc32)cc1` [5/3]: in data set [7] (time point 4 h), the blood/plasma exposure entry is listed as “C (100 nM to <300 nM)”, the liver exposure entry is reported as “C (1 μM to ≤3 μM)” and the liver/blood ratio entry is recorded as “C (10 to ≤30)”.
